Assay results: article PMC7321072, “Bioactive Potential of Extracts of Labrenzia aggregata Strain USBA 371, a Halophilic Bacterium Isolated from a Terrestrial Source” (Molecules, 2020)
Where two headings read alike, the source gives them in different places.

Tests used:
Assay type in all cases: cell-based
[1] = system: 4T1 H17 (murine breast cancer, high ALDH expression); assay: Cytotoxic activity, neutral red assay, 4T1 H17; conditions: mean ± SEM
Protocol: (§1) The isolated compounds were resuspended in dimethyl sulfoxide (DMSO) to a final concentration of 25 mg/mL (stock solution), subsequent dilutions between 250 and 31 μg/mL were used for cytotoxicity assays. The cytotoxic activity was determined by neutral red assay, initially against the adherent cell lines 4T1 (mouse mammary tumor) and MCF-7 (human mammary adenocarcinoma) followed by H17 y TSA (murine breast cancer), MES SA PGP (+) y MES SA PGP (–) (human uterus sarcome), B16 (murine melanoma), MCA 38 (murine colon), 3T3 (murine fibroblats) y K562-ATCC, U937 y HL-60/MX2 (myeloid acute leukemia cell line) as described by Díaz-Cárdenas et al., 2017 [15]. When cultures reached a confluence of 80%, cells were passaged and counted in a Neubauer chamber. Cell viability was estimated in triplicate using the trypan blue assay. The percentage of viability was calculated as absorbance of the vehicle/absorbance of the treatment per 100. […] IC50 values were calculated with three or four parameter nonlinear regression curves using GraphPad Prism software (GraphPad Software, Inc., San Diego, CA, USA). […] The selectivity index was calculated using the formula: IC50 Fibroblasts/IC50 tumor cell. […]
(§2) The solvent used in the reconstitution of the extract (DMSO) was evaluated as a negative control for each test in the same volume as the extracts. […]

[2] = system: 4T1 (mouse mammary tumor); assay: Cytotoxic activity, neutral red assay, 4T1; conditions: mean ± SEM
Protocol: (§3) The isolated compounds were resuspended in dimethyl sulfoxide (DMSO) to a final concentration of 25 mg/mL (stock solution), subsequent dilutions between 250 and 31 μg/mL were used for cytotoxicity assays. The cytotoxic activity was determined by neutral red assay, initially against the adherent cell lines 4T1 (mouse mammary tumor) and MCF-7 (human mammary adenocarcinoma) followed by H17 y TSA (murine breast cancer), MES SA PGP (+) y MES SA PGP (–) (human uterus sarcome), B16 (murine melanoma), MCA 38 (murine colon), 3T3 (murine fibroblats) y K562-ATCC, U937 y HL-60/MX2 (myeloid acute leukemia cell line) as described by Díaz-Cárdenas et al., 2017 [15]. When cultures reached a confluence of 80%, cells were passaged and counted in a Neubauer chamber. Cell viability was estimated in triplicate using the trypan blue assay. The percentage of viability was calculated as absorbance of the vehicle/absorbance of the treatment per 100. Inhibitory concentration 50 (IC50) values were defined as the concentration of the extracts that generated 50% inhibition of tumor cell growth. IC50 values were calculated with three or four parameter nonlinear regression curves using GraphPad Prism software (GraphPad Software, Inc., San Diego, CA, USA). IC50 values are presented as the mean ± standard error of mean (SEM). The selectivity index was calculated using the formula: IC50 Fibroblasts/IC50 tumor cell. A potential against tumor cell lines was considered when the selectivity was greater than 1.
(§4) The solvent used in the reconstitution of the extract (DMSO) was evaluated as a negative control for each test in the same volume as the extracts. Doxorubicin at a maximum concentration of 5 μM was used as a positive control.

[3] = system: K562 (myeloid acute leukemia); assay: Cytotoxic activity, neutral red assay, K562
Protocol: as §1, §2

[4] = system: U937 (myeloid acute leukemia); assay: Cytotoxic activity, neutral red assay, U937
Protocol: as §1, §2

[5] = system: MES–SA/DX5P-Pgp (+) (human uterus sarcome); assay: Cytotoxic activity, neutral red assay, MES-SA/DX5 Pgp (+)
Protocol: as §1, §2

[6] = system: 3T3 (murine fibroblast); assay: Cytotoxic activity, neutral red assay, 3T3 normal fibroblasts; conditions: 3T3, murine fibroblast (normal cells); mean ± SEM; read-out: Cytotoxic Activity of Fractions IC50
Protocol: as §1, §2

[7] = system: 3LL (lung cancer); assay: Cytotoxic activity, neutral red assay, 3LL; conditions: mean ± SEM
[8] = system: TSA (murine breast cancer); assay: Cytotoxic activity, neutral red assay, TSA; conditions: mean ± SEM, read-out: Cytotoxic Activity of Fractions IC50
Protocol: as §1, §2

[9] = system: MCF-7 (human mammary adenocarcinoma); assay: Cytotoxic activity, neutral red assay, MCF-7; conditions: mean ± SEM
Protocol: as §3, §4

[10] = system: B16 (murine melanoma); assay: Cytotoxic activity, neutral red assay, B16; conditions: mean ± SEM, read-out: Cytotoxic Activity of Fractions IC50
Protocol: as §1, §2

[11] = system: MCA 38 (murine colon); assay: Cytotoxic activity, neutral red assay, MCA 38; conditions: mean ± SEM
Protocol: as §1, §2

[12] = listed as compound 1, read-out: Cytotoxic Activity of Fractions IC50
[13] = read-out: Cytotoxic Activity of Fractions IC50

| SMILES | IC50 [1, 12] | IC50 [1, 13] | IC50 [2] | IC50 ([2]; listed as compound 1) | cytotoxic activity (in words) [3] | cytotoxic activity (in words) [4] | Selectivity Index (SI) ([5]; IC50 fibroblasts (3T3)/IC50 MES-SA/DX5 Pgp (+)) | IC50 ([5]; MES-SA/DX5 Pgp (+), human uterus sarcoma, mean ± SEM, read-out: Cytotoxic Activity of Fractions IC50) | IC50 [6] | IC50 [7, 12] | IC50 [7, 13] | IC50 [8] | IC50 [9] | IC50 ([9]; listed as compound 1) | IC50 [10] | IC50 [11, 12] | IC50 [11, 13] | IC50 ([2]; listed as compound 2) | IC50 ([9]; listed as compound 2) |
| --- | --- | --- | --- | --- | --- | --- | --- | --- | --- | --- | --- | --- | --- | --- | --- | --- | --- | --- | --- |
| O=C1N[C@@H](Cc2ccc(O)cc2)C(=O)N2CCC[C@@H]12 [Compound 1, cyclo (L-Pro-L-Tyr)] | < 40 µM | 40.4 ± 1.94 µM | 57.1 ± 2.11 µM | < 88 µM | no activity was detected | no activity was detected | 1.39 | 225.3 ± 1.23 µM | 314 ± 3.41 µM | < 51.7 µM | 51.7 ± 0.55 µM | 197 ± 4.18 µM | 87.7 ± 2.32 µM | < 88 µM | 80.9 ± 3.67 µM | < 40 µM | 29.9 ± 1.55 µM |  |  |
| O=C1N[C@@H](Cc2ccc(O)cc2)C(=O)N[C@H]1Cc1ccccc1 [Compound 2, cyclo (L-Tyr-L-Phe)] |  |  | 875.9 ± 5.14 µM |  |  |  |  |  |  |  |  |  | 890.5 ± 3.45 µM |  |  |  |  | > 250 µM | > 250 µM |
